Source: ChEMBL document CHEMBL4823254, “Tetrahydroquinoline-Capped Histone Deacetylase 6 Inhibitor SW-101 Ameliorates Pathological Phenotypes in a Charcot-Marie-Tooth Type 2A Mouse Model” (J Med Chem, 2021)
Active and inactive are the calls of the source.

How the values were obtained:
[1] = Half life in human pooled liver microsomes assessed as parent compound remaining measured up to 60 mins in presence of NADPH by LC-MS/MS analysis; format: ADME, Microsome; details: pooled liver microsomes
[2] = biological target: Histone deacetylase 4 (Homo sapiens, UniProt P56524); experiment: Inhibition of recombinant human HDAC4 using Boc-Lys(TFA)-AMC as substrate preincubated for 10 mins followed by substrate addition and measured after 30 mins by fluorescence-based assay
[3] = biological target: Histone deacetylase 5 (Homo sapiens, UniProt Q9UQL6); experiment: Inhibition of recombinant human HDAC5 using Boc-Lys(TFA)-AMC as substrate preincubated for 10 mins followed by substrate addition and measured after 30 mins by fluorescence-based assay
[4] = biological target: T1, Histone deacetylase 11 (Homo sapiens, UniProt Q96DB2); experiment: Inhibition of recombinant human HDAC11 expressed in HEK293T/17 cells using Boc-Lys(TFA)-AMC as substrate preincubated for 10 mins followed by substrate addition and measured after 30 mins by fluorescence-based assay
T1 sequence (Q96DB2 whole entry): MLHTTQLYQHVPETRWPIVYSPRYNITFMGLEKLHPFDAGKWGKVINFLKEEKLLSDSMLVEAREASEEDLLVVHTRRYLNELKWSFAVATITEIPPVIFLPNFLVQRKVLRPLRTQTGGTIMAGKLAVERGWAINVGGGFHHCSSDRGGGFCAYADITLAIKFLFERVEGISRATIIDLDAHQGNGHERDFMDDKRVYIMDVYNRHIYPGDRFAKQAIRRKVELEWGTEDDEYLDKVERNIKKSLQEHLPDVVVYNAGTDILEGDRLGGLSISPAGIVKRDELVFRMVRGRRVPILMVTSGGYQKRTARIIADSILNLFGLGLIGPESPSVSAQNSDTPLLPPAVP

[5] = Half life in mouse liver s9 fraction; format: ADME, subcellular
[6] = Half life in human liver s9 fraction; format: ADME, subcellular
[7] = biological target: hERG (KCNH2) (Homo sapiens, UniProt Q12809); experiment: Inhibition of human ERG expressed in CHO cells at 10 uM by automated patch clamp method relative to control; format: cell-based; details: CHO cells expressing human ERG
[8] = Genotoxicity in Salmonella typhimurium TA98 at 5 to 100 uM in presence of liver S9 fraction by Ames test; format: toxicity; details: salmonella enterica subsp. enterica serovar typhimurium, s9, 100 µM; dose 5-100 µM
[9] = Genotoxicity in Salmonella typhimurium TA98 at 5 to 100 uM in absence of liver S9 fraction by Ames test; format: toxicity; details: salmonella enterica subsp. enterica serovar typhimurium, s9, 100 µM; dose 5-100 µM
[10] = Genotoxicity in Salmonella typhimurium TA100 at 5 to 100 uM in presence of liver S9 fraction by Ames test; format: toxicity; details: salmonella enterica subsp. enterica serovar typhimurium, s9, 100 µM; dose 5-100 µM
[11] = Genotoxicity in Salmonella typhimurium TA1535 at 5 to 100 uM in presence of liver S9 fraction by Ames test; format: toxicity; details: salmonella enterica subsp. enterica serovar typhimurium, s9, 100 µM; dose 5-100 µM
[12] = Half life in C57BL/6J mouse plasma at 15 mg/kg, ip; format: ADME, organism-based
[13] = Total AUC (0 to infinity) in C57BL/6J mouse brain at 15 mg/kg, ip; format: ADME, organism-based; parameters: time AUCmax, route intraperitoneal, dose 15 mg/kg
[14] = biological target: T2, Protein deacetylase HDAC6 (Mus musculus) (UniProt Q9Z2V5); experiment: In vivo inhibition of HDAC6 in wild type mouse assessed as increase in alpha-tubulin acetylation in sciatic nerve tissue at 10 to 20 mg/kg, ip measured after 6 hrs by immunoblot analysis relative to control; format: functional, organism-based; parameters: scale not given: the % may be the effect or the level left; details: dose 10-20 mg/kg
T2 sequence (whole entry): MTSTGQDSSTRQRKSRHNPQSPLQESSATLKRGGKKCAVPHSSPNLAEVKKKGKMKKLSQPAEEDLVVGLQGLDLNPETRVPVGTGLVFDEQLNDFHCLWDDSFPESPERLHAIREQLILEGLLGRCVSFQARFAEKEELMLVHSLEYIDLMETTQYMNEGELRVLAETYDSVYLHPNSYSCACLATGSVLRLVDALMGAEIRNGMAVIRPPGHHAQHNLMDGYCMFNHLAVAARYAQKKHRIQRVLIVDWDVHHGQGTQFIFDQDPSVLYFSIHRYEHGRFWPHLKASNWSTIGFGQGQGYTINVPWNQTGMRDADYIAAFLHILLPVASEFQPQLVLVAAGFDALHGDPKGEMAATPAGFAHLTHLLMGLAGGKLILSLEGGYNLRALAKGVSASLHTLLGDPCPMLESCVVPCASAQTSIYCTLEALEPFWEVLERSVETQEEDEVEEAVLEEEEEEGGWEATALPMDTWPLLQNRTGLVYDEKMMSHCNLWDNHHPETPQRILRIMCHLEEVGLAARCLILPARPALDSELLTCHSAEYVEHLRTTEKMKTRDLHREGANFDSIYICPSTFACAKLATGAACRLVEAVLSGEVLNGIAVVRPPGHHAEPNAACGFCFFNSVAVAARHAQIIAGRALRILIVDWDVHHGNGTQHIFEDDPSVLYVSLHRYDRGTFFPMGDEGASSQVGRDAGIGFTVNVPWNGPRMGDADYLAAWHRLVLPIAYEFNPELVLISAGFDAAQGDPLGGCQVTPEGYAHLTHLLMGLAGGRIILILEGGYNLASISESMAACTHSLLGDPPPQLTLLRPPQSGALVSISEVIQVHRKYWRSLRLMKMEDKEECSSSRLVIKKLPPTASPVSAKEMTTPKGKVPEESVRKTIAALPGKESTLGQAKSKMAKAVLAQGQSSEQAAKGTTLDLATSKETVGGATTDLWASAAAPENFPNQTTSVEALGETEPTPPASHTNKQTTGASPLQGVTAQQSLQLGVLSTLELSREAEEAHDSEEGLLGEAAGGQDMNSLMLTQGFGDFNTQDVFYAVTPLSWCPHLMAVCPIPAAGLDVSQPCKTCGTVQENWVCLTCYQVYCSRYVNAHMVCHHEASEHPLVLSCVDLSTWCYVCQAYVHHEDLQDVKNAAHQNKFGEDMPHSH

[15] = system: Mus musculus; experiment: Neuroprotective activity in hMFN2-induced CMT2A transgenic mouse model assessed as increase in motor performance at 20 mg/kg, ip qd administered for 26 weeks when treated prior with compound dissolved in PBS/PEG400/Tween80/EtOH (50/35/10/5) wt% as vehicle by rotarod test; format: functional, organism-based
[16] = system: Mus musculus; experiment: Neuroprotective activity in hMFN2-induced CMT2A transgenic mouse model assessed as increase in paw withdrawal threshold at 20 mg/kg, ip qd administered when treated prior with compound dissolved in PBS/PEG400/Tween80/EtOH (50/35/10/5) wt% as vehicle by von Frey test; format: functional, organism-based
[17] = biological target: T2, Protein deacetylase HDAC6 (Mus musculus); experiment: In vivo inhibition of HDAC6 in hMFN2-induced CMT2A transgenic mouse model assessed as increase in acetylated tubulin in distal sciatic nerve tissue at 20 mg/kg, ip qd administered for 12 weeks followed by treatment with compound dissolved in PBS/PEG400/Tween80/EtOH (50/35/10/5) wt% as vehicle by Western blot analysis; format: functional, organism-based

Histone deacetylase 4, sequence (P56524 whole entry): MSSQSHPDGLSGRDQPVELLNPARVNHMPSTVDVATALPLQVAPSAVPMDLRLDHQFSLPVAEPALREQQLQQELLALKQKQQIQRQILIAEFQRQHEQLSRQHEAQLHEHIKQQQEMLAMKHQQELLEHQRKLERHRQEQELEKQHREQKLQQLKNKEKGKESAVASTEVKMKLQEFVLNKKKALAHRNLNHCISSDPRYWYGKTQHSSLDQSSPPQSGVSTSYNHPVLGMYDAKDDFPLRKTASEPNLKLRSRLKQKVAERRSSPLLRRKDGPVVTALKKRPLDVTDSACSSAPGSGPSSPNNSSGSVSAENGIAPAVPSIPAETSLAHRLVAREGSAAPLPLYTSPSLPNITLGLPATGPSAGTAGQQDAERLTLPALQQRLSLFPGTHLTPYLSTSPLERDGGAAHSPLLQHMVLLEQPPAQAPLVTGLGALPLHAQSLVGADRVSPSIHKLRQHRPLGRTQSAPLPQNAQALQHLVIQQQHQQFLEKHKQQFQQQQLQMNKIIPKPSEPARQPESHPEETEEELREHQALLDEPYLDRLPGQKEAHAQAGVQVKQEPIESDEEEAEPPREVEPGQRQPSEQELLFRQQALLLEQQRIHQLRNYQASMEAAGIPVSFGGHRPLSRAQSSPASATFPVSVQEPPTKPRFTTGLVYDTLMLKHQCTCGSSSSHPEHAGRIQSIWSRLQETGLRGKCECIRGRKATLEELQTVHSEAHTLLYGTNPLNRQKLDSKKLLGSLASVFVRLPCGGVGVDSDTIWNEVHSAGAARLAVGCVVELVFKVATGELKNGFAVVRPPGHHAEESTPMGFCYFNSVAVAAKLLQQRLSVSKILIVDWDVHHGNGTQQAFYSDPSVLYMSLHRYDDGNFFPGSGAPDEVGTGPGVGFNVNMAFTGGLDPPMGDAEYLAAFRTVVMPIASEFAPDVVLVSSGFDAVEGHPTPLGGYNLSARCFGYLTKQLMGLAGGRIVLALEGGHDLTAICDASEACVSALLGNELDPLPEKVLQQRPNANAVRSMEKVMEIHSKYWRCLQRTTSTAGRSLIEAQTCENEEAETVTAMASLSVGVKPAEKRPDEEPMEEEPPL
hERG (KCNH2), sequence (Q12809 whole entry): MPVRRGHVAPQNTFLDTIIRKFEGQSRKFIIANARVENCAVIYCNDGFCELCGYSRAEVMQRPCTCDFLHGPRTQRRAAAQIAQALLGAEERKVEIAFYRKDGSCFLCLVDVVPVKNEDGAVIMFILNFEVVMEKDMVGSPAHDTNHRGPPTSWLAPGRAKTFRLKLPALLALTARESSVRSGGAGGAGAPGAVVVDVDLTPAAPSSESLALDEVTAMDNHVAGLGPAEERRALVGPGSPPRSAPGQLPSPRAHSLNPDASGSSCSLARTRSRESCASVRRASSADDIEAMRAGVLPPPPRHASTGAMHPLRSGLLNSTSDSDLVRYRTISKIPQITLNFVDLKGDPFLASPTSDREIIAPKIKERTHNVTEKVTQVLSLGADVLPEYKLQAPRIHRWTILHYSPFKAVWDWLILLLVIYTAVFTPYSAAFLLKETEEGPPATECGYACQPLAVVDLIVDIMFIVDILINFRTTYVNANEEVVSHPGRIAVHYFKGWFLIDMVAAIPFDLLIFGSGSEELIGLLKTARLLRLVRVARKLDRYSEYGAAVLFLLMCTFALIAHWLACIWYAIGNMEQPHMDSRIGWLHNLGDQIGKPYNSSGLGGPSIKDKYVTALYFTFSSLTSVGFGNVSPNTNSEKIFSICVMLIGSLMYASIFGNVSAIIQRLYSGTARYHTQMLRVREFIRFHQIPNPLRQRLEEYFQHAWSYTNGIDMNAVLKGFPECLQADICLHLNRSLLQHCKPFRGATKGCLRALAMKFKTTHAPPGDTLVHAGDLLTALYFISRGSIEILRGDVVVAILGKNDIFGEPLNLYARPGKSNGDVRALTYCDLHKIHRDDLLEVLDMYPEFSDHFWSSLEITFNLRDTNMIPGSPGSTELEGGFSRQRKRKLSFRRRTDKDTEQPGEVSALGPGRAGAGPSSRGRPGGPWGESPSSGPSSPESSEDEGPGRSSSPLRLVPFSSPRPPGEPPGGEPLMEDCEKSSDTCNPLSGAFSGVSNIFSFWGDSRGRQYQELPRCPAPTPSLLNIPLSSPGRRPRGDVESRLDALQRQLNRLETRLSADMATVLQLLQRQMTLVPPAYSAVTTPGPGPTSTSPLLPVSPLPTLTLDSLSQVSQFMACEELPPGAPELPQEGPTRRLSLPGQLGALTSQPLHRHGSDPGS
Histone deacetylase 5, sequence (Q9UQL6 whole entry): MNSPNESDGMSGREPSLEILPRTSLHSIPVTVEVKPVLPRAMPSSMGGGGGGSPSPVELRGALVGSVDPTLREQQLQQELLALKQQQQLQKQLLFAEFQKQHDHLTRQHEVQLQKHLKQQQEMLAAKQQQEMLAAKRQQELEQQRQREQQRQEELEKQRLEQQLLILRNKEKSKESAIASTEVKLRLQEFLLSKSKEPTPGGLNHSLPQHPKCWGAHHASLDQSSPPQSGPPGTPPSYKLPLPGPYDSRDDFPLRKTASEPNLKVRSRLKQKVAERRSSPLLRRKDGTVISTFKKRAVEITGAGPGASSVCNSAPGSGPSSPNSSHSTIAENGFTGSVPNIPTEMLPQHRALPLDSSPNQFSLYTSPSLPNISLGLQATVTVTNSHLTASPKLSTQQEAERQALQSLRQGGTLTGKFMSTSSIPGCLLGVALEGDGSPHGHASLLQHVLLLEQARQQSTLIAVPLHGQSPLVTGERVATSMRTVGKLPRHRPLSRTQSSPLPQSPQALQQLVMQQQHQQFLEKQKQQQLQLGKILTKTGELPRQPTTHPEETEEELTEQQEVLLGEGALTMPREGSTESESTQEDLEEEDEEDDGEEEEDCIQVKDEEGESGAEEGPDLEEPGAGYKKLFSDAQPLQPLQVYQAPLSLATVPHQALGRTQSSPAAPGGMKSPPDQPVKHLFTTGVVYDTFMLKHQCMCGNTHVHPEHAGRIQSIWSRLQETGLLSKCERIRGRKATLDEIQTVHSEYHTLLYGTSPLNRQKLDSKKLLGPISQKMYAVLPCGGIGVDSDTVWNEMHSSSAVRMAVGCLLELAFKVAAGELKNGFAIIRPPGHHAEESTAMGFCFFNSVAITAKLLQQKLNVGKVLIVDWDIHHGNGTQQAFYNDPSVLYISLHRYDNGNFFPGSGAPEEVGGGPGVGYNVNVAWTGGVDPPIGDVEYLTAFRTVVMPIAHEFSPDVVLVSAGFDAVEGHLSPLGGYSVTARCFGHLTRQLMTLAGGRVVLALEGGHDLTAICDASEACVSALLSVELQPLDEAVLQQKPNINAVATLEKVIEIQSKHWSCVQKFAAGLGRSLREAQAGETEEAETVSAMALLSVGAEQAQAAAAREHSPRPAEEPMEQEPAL

NC(=O)c1ccc2c(c1)CCCN2Cc1ccc(C(=O)NO)cc1
half-life [1]: 2.89 h | IC50 [2]: 0.454 µM | IC50 [3]: 0.276 µM | IC50 [4]: 5.31 µM | half-life [5]: 3.55 h | half-life [6]: > 16.7 h | inhibition at 10 µM [7]: 30% | Activity [8]: Non-Toxic | Activity [9]: Non-Toxic | Activity [10]: Non-Toxic | Activity [11]: Non-Toxic | half-life [12]: 0.44 h | AUC(0-inf) [13]: 280 ng·h/mL | Activity [14]: 150% | Activity [15]: Active | Activity [16]: Active | inhibition [17]: Active
